Results: US5149688A, “Methods, compounds, and compositions for immunosuppression” (priority 1990, dated 1992)
Read-outs that look alike come from different tables or passages of the source.

What was measured:
lymphocytes [1] = assay: Phytohemagglutinin A (PHA) assay; assay type: cell-based; conditions: Lymphocyte, read-out: concentration giving 50% inhibition, PHA assay
Source text: (§1) The following studies sought to characterize the immunosuppressive activities of ABA, both as to in vitro and in vivo efficacy in experimental systems. It is important to point out that the results obtained from the in vitro systems are generally predictive of the in vivo immunosuppressive properties of the ABA. More specifically, the assays used here are mixed lymphocyte response (MLR) and phytohemagglutinin A (PHA) assays which are valuable for identifying immune suppressive molecules in vitro, and that the results obtained therefrom are generally predictive of their in vivo effectiveness. The assays are further described below.
A second assay widely used to study immune responsiveness is mitogenic stimulation of lymphocytes with mitogenic substances of plant origin. The most widely used plant molecule is PHA.
(§2) Thus, it will be appreciated as to both the mixed lymphocyte and PHA assay that they are valuable for identifying immune suppressive molecules in vitro, and that the results obtained therefrom are generally predictive of their in vivo effectiveness.

lymphocytes [2] = assay: Primary mixed lymphocyte response (MLR) assay; assay type: cell-based; conditions: read-out: concentration giving 50% inhibition, primary MLR assay
Source text: as §1
The in vitro mixed lymphocyte assay is presently employed in the clinical setting as an indicator of histocompatibility, and is premised on the transformation of resting genetically dissimilar lymphocytes into cells which synthesize DNA and undergo proliferation.
as §2

lymphocytes [3] = assay: Secondary mixed lymphocyte reaction (2'-MLR) assay; assay type: cell-based; conditions: read-out: concentration inhibiting 50% of the stimulatory activity, 2'-MLR
Source text: In addition to the above immunosuppressive assays, a secondary mixed lymphocyte reaction assay was applied to ABA. The secondary mixed lymphocyte assays differs from the primary mixed lymphocyte reaction assays in that they employ many more primed responder cells that are responsive to the primary stimulating cells. The presence of such responsive cells is a reflection of immunological memory in an ongoing immunological response. […] Generally between 10% to 50% of the original input cells are recovered in viable condition. These cells are then used in the secondary mixed lymphocyte reaction.
The procedure for carrying out a secondary mixed lymphocyte reaction is described by T. Meoen, Immunological Methods, Eds I. Lefkoivits and B. Pernis, […], New York (1979). It will be appreciated that described therein is a method for carrying out secondary lymphocyte reactions using mouse cells, however such methods are generally applicable to performing secondary mixed lymphocyte reactions using human cells with modifications that are well known to those skilled in the art.

adjuvant arthritis (AA) [4] = tested on: adjuvant arthritis (AA)
[5] = tested on: rheumatoid arthritis (RA); conditions: human, in vivo; cited from earlier work
dihydrofolate reductase = conditions: cited from earlier work
adjuvant arthritis (AA) [6] = assay: Prophylactic effect of SA on adjuvant arthritis in rats (Example 1); assay type: in vivo, male Lewis rats
[7] = Plasma levels of SA during CI therapy (HPLC); assay type: in vivo, male Lewis rats; conditions: 400 mg/kg/day CI; for concentration at 216 h: rat, plasma, sc, 400 mg/kg/day
adjuvant arthritis (AA) [8] = assay: Therapeutic effect of SA on AA (Example 2); assay type: in vivo, rats
Protocol: The following experiments examined the therapeutic effect of SA on the progression of AA. In these studies, the treatments with SA began at day 5 after the rats had been immunized with M.Tb in their left footpads. At this time, the activation of lymphoid cells with M.Tb was well established and the appearance of mononuclear cells at the joint has been reported as the earliest histologic findings. Billingham, 1983, Pharma. Theory, 21: 389.
325 mg/kg/day of SA was administered by subcutaneous pump infusion from day 5 until day 19. The control animals received isotonic and isovolumic NaCl control.
A parallel group of animals were treated with daily intraperitoneal injections of 800 mg/kg/day of SA (FIGS. 6 and 7). This was done to compare the relative efficacy of continuous infusion versus a single daily intraperitoneal injection.

adjuvant arthritis (AA) [9] = assay: Comparative efficacy of MTX and SA in suppressing onset of AA (Example 3); assay type: in vivo, Lewis rats
Protocol: On the same day, pumps were surgically implanted into the first two groups. The first group received SA at 300 mg/kg/day through the pumps. The second group, which served as the control, received continuous infusion of 2.5M NaCl through the pumps.

[10] = tested on: established adjuvant arthritis (AA); assay: Comparative efficacy of SA and MTX in the treatment of established arthritis (Example 4); assay type: in vivo, male Lewis rats
Protocol: Three groups of 15 male Lewis rats were injected with M.Tb on day 0 in the left hindpaw. […] On day 16, subcutaneous pumps were placed in the SA and control groups. SA was administered at 300 mg/kg/day by CI. The control group received 2.5M NaCl. […] Treatment was continued to day 30.

adjuvant arthritis (AA) [11] = assay: Long term suppression of AA using combined SA and MTX treatment (Example 6); assay type: in vivo, male Lewis rats; conditions: SA 300 mg/kg/day IP or MTX 0.9 mg/kg/week IP, day 5 to 15
Protocol: On day 0, three groups of 10 male Lewis rats were injected with M.Tb in oil suspension, as in previous examples. […] The animals were evaluated for arthritis development.

[12] = rat, in vivo
Protocol: (§3) Isotonic and isovolumic saline was used as the control in this subcutaneous infusion treatment regimen (hereinafter referred to as SQ, or continuous infusion, CI, regimen). The treatment was started on day -4 prior to M.Tb injection (day 0). The pumps were calculated to infuse until day 10. Ten rats were used in each group.

[13] = tested on: delta-aminolevulinic dehydratase; conditions: cited from earlier work
allogeneic tumors = conditions: rats; cited from earlier work
[14] = Body weight / toxicity of rats under prophylactic SA treatment; conditions: SA level necessary for suppression of AA
Protocol: as §3

adjuvant arthritis (AA) [15] = assay: Therapeutic treatment of AA with SA and/or MTX, summary of set of experiments run in triplicate
Protocol: In the SA and MTX combined treatment regimen, the SA was administered in an amount ranging from 150-300 mg/kg/day. The MTX was administered three times a week in IP injections, at a total of 0.9 mg/kg/week.

[16] = SA 300 mg/kg/day CI, day 16 to 30

CC(=O)CC(=O)c1ccccc1C(=O)O [ABA, 2-acetoacetyl benzoic acid]
IC50 (lymphocytes [1]): 91 ± 60 µM
IC50 (lymphocytes [2]): 870 ± 280 µM
IC50 (lymphocytes [3]): ~1600 µM
footpad swelling at day 19, 4 days after cessation (adjuvant arthritis (AA) [4]; ABA 400 mg/kg/day IP): decreased footpad swelling
suppression of AA, ABA compared with SA (adjuvant arthritis (AA) [4]; ABA 400 mg/kg/day IP vs SA 800 mg/kg/day IP): ABA is more efficacious than SA in suppressing AA
footpad swelling, clinical disease scores and incidence of arthritis during administration (adjuvant arthritis (AA) [4]; ABA 400 mg/kg/day IP, FIGS. 14 and 15): AA was suppressed; the footpad swelling, clinical disease scores and incidence of arthritis were all lowered
Arthritis Incidence (adjuvant arthritis (AA) [4]; ABA 100 in ABA/PEG formulation, day 12): 100%
Arthritis Incidence (adjuvant arthritis (AA) [4]; ABA 100 in ABA/PEG formulation, day 19): 100%
suppression of arthritis (adjuvant arthritis (AA) [4]; ABA 200 and 100 mg/kg/day IP): did not show observable suppression of arthritis
Arthritis Incidence (adjuvant arthritis (AA) [4]; ABA 200 in ABA/PEG formulation, day 12): 100%
Arthritis Incidence (adjuvant arthritis (AA) [4]; ABA 200 in ABA/PEG formulation, day 19): 100%
Arthritis Incidence (adjuvant arthritis (AA) [4]; ABA 400 in ABA/PEG formulation, daily IP day 5 to 15, day 12, control 100%): 40%
Arthritis Incidence (adjuvant arthritis (AA) [4]; ABA 400 in ABA/PEG formulation, day 19 (4 days after cessation)): 100%
suppression of AA at 400 mg/kg/day, post-immunization regimen (adjuvant arthritis (AA) [4]; ABA given IP): ABA suppressed AA at 400 mg/kg/day when given IP in a post-immunization regimen

CC(C)(S)[C@@H](N)C(=O)O [D-penicillamine]
toxic side effects [5]: causes bone marrow depression and renal toxicity

CN(Cc1cnc2nc(N)nc(N)c2n1)c1ccc(C(=O)N[C@@H](CCC(=O)O)C(=O)O)cc1 [MTX, Methotrexate]
inhibition of dihydrofolate reductase (dihydrofolate reductase): inhibits dihydrofolate reductase

CC(=O)CC(=O)CCC(=O)O [SA, Succinylacetone]
arthritis severity, dose dependence (adjuvant arthritis (AA) [6]; SA 400 and 200 mg/kg/day CI, day -4 to day 10): inhibited arthritis severity in a dose dependent manner
right footpad swelling and arthritis in non-injected extremities (adjuvant arthritis (AA) [6]; SA 400 and 200 mg/kg/day, SQ ALZET pumps, day -4 to day 10, FIGS. 1 and 2): suppression of clinical arthritis
histologic arthritis of the joints (adjuvant arthritis (AA) [6]; SA treated cohort, CI): found to suppress histologic arthritis
concentration ([7]; blood collected on day 9, individual rats SA-C1, SA-C2, SA-C3, 12960 min, 12960 min, read-out: SA Level (plasma)): 50 µM
concentration at 216 h ([7]; blood collected on day 9, individual rats SA-C1, SA-C2, SA-C3, read-out: SA Level (plasma)): 44 µM
concentration at 216 h ([7]; day 9, HPLC, read-out: plasma SA levels associated with clinical suppression of arthritis): 40 to 50 µM
continuous infusion versus daily IP injection (adjuvant arthritis (AA) [8]; 325 mg/kg/day CI vs 800 mg/kg/day IP): continuous infusion results in greater suppression at a lower dose than does daily IP injection
right hindpaw swelling and clinical severity of arthritis (adjuvant arthritis (AA) [8]; SA 325 mg/kg/day SQ pump infusion, day 5 to 19, FIGS. 4 and 5): Right hindpaw swelling and clinical severity of arthritis was suppressed
arthritis during treatment (adjuvant arthritis (AA) [8]; SA 325 mg/kg/day continuous infusion): completely suppressed during treatment
day until which the clinical scores did not increase (adjuvant arthritis (AA) [8]; SA 325 mg/kg/day continuous infusion, day 5 to 19): 36 days
increase in clinical scores relative to saline treated animals (adjuvant arthritis (AA) [8]; SA 325 mg/kg/day continuous infusion, from day 36): less than half of the saline treated animals
suppression of AA beyond termination of treatment (adjuvant arthritis (AA) [8]; SA 800 mg/kg/day IP, FIG. 7): did not suppress the AA beyond the termination of the treatment regimen
day by which groups reached equivalent severity to the controls (adjuvant arthritis (AA) [8]; SA 800 mg/kg/day, daily IP): ≤ 33 days
footpad swelling after termination of treatment (adjuvant arthritis (AA) [8]; SA 800 mg/kg/day, daily IP): an attenuated increase in footpad swelling was observed, however, the swelling was less than that found in the controls
footpad swelling during treatment (adjuvant arthritis (AA) [8]; SA 800 mg/kg/day, daily IP, FIG. 6): suppression of footpad swelling until the treatment stopped
clinical severity of arthritis (adjuvant arthritis (AA) [8]; SA 800 mg/kg/day, daily IP, FIG. 7): delayed the clinical severity of the arthritis
suppression of arthritis, both regimens (adjuvant arthritis (AA) [8]; continuous infusion and daily IP injections): resulted in suppression of arthritis
suppression of AA based on disease incidence (adjuvant arthritis (AA) [9]; SA 300 mg/kg/day CI): maximal suppression of AA based on the disease incidence
footpad swelling, SA compared with MTX (adjuvant arthritis (AA) [9]; SA 300 mg/kg/day CI vs MTX […] and 3 mg/kg/week): trend towards greater inhibition
incidence of arthritis (adjuvant arthritis (AA) [9]; SA 300 mg/kg/day CI, day 14, FIG. 9): no incidence of arthritis on day 14
footpad swelling suppression (adjuvant arthritis (AA) [9]; SA 300 mg/kg/day CI, MTX 2.4 and 3 mg/kg/week IP, FIG. 8): significant suppression
right footpad diameter, progression from day 23 to 63 ([10]; SA 300 mg/kg/day CI or MTX […] IP, day 16 to 30, FIG. 10): did not increase significantly
persistence of lack of further swelling after cessation of treatment [10, 16]: up to 33 days
progression / regression of established arthritis [10, 16]: SA prevented progression of AA, but because the disease had already established itself at the onset of treatment, SA did not cause regression of the arthritis
mean right hindpaw thickness ([10]; day 23, SA 300 mg/kg/day CI or MTX […] IP from day 16, control 321, normal about 170 U): 258 U
suppression of AA, single drugs IP (adjuvant arthritis (AA) [11]): AA was not suppressed
body weight [12]: allowed weight gain
suppression of the disease by SA using this treatment protocol (adjuvant arthritis (AA) [4]; SA 800 mg/kg/day IP): only transient suppression of the disease
inhibition of delta-aminolevulinic dehydratase [13]: potent inhibitor
tumorigenicity of allogeneic tumors (allogeneic tumors): enhance tumorigenicity of allogeneic tumors in rats
toxicity [14]: non-toxic to the animals at the level necessary for suppression of AA
CI versus IP regimen at suppressing the AA (adjuvant arthritis (AA) [15]; 300 to 400 mg/kg/day CI vs 800 mg/kg/day IP): The CI regimen was more effective than the IP regimen at suppressing the AA
suppression of AA without death or weight loss (adjuvant arthritis (AA) [15]; SA 300 to 400 mg/kg/day CI or 800 mg/kg/day IP): suppressed AA without causing death or weight loss in the rats
SA dose at which AA was suppressed without death or weight loss, IP (adjuvant arthritis (AA) [15]; daily intraperitoneal injection): 800 mg/kg/day
